# Patent publication US10000496B2, “Compositions useful for treating disorders related to kit and PDGFR” (BLUEPRINT MEDICINES CORPORATION, priority 2015, dated 2018)
# Columns and labels:
# [1] = target: T1, Kit D816V in HMC1.2 cells (Homo sapiens, UniProt P10721, D816V/V560G); test: HMC1.2 autophosphorylation assay (Kit autophosphorylation at tyrosine 719, AlphaLISA); assay type: cell-based; conditions: HMC1.2 mast cell leukemia cells (Kit V560G and D816V), phospho-Y719 c-Kit, 90 minutes; read-out: Cellular Activity IC50
# T1 construct: endogenous in cells; host or cells: HMC1.2
# T1 sequence (P10721 26-976 V560G/D816V): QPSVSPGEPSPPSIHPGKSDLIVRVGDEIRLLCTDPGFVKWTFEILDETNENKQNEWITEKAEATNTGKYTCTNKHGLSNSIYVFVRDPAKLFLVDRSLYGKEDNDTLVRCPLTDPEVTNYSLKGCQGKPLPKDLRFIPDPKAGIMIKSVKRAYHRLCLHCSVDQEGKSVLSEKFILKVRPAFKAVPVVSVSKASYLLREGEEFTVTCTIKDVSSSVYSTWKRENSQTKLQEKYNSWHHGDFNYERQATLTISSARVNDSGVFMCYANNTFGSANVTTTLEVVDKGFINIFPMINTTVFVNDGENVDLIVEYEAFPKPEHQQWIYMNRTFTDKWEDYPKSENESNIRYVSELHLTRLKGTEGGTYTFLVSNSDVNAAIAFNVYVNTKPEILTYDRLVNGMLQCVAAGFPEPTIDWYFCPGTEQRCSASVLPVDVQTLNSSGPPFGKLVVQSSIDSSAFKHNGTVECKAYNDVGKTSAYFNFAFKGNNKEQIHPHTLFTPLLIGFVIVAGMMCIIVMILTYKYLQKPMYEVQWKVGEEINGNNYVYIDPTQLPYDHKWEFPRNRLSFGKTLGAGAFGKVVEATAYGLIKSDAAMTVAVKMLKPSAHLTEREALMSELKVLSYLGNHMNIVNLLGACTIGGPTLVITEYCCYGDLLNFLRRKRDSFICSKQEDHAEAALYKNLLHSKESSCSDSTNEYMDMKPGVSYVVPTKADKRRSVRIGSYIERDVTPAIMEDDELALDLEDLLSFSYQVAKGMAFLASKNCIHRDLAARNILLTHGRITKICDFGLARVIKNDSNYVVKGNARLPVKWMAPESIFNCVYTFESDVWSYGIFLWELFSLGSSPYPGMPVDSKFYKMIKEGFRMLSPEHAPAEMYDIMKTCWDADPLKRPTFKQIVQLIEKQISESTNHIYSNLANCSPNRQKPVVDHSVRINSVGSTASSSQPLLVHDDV
# Procedure: 10,000 HMC1.2 cells were incubated in 22 ul culture media (phenol-red free IMDM, no serum) in each well of a 384-well plate and serum starved overnight in a tissue culture incubator (5% CO2, 37° C.). A 10-point dose concentration series of compound (25 uM-95.4 pM) were then added to the cells in a volume of 3.1 ul to each well (0.25% DMSO final concentration). After 90 minutes, 6 ul of 5× AlphaLISA Lysis Buffer (Perkin Elmer) supplemented with a protease and phosphatase inhibitor cocktail (Cell Signaling Technologies) was added to each well and shaken at 450 rpm for 15 minutes at 4° C. 10 ul of phospho-Y719 c-Kit and total c-Kit antibodies (15 nM final concentration, Cell Signaling Technologies) and 50 ug/ml AlphaLISA rabbit acceptor beads (Perkin Elmer) were added to each well and shaken at 300 rpm at room temperature for 2 hours. 10 ul of 100 ug/ml streptavidin donor beads (Perkin Elmer) were added to each well, blocked from light with aluminum adhesive and shaken at 300 rpm at room temperature for 2 hours. Fluorescence signal was obtained on Envision (Perkin Elmer) by AlphaScreen 384 well HTS protocol. Data was normalized to 0% and 100% inhibition controls and the IC50 was calculated using Four Parameter Logistic IC50 curve fitting.
# This cell line contains Kit mutated at positions V560G and D816V resulting in constitutive activation of the kinase. The following compounds were tested in an assay to measure direct inhibition of Kit D816V kinase activity by assaying Kit autophosphorylation at tyrosine 719 on the Kit protein.
# D816V Kit = target: T2, D816V Kit (Homo sapiens, UniProt P10721, D816V); test: Kit D816V assay at Km (Caliper electrophoretic mobility shift); conditions: D816V Kit 0.5 nM, 15 uM ATP (Km), 1 uM Srctide, 25 C, 90 minutes; read-out: Biochemical Activity D816V IC50
# T2 construct: purchased Carna Bioscience 08-156
# T2 sequence (P10721 26-976 D816V): as the sequence (P10721 26-976 V560G/D816V) above, with G535V counted along it
# Procedure: In order to assess the activity of chemical compounds against the relevant kinase of interest, the Caliper LifeSciences electrophoretic mobility shift technology platform is used. Fluorescently labeled substrate peptide is incubated in the presence of kinase and ATP so that a […] proportion of the peptide is phosphorylated. At the end of the reaction, the mix of phosphorylated (product) and non-phosphorylated (substrate) peptides are passed through the microfluidic system of the Caliper EZ Reader 2, under an applied potential difference. The presence of the phosphate group on the product peptide provides a difference in mass and charge between those of the substrate peptide, resulting in a separation of the substrate and product pools in the sample. As the pools pass a LEDS within the instrument, these pools are detected and resolved as separate peaks. The ratio between these peaks therefore reflects the activity of the chemical matter at that concentration in that well, under those conditions.
# Kit D816V assay at Km: In each well of a 384-well plate, 0.04 ng/ul (0.5 nM) of D816V Kit (Carna Bioscience 08-156) was incubated in a total of 12.5 ul of buffer (100 mM HEPES pH 7.5, 0.015% Brij 35, 10 mM MgCl2, 1 mM DTT) with 1 uM Srctide (5-FAM-GEEPLYWSFPAKKK-NH2) and 15 uM ATP at 25 C for 90 minutes in the presence or absence of a dosed concentration series of compound (1% DMSO final concentration). The reaction was stopped by the addition of 70 ul of Stop buffer (100 mM HEPES pH 7.5, 0.015% Brij 35, 35 mM EDTA and 0.2% of Coating Reagent 3 (Caliper Lifesciences)). The plate was then read on a Caliper EZReader 2 (protocol settings:—1.9 psi, upstream voltage—700, downstream voltage—3000, post sample sip 35s). Data was normalized to 0% and 100% inhibition controls and the IC50 or EC50 calculated using a 4-parameter fit using GraphPad Prism.
SMILES,IC50 [1] [nM],IC50 (D816V Kit) [nM]
CCC(=O)N1CC=C(c2cc3c(-c4ccc(NS(=O)(=O)c5ccc(Cl)cc5)cc4)ncnn3c2)CC1 [Compound 63],10 to 100,< 1
"CC(C)Oc1ccc(-c2cc3c(-c4ccc(NS(=O)(=O)c5ccc(Cl)cc5)cc4)ncnn3c2)cc1 [Compound 62, 4-chloro-N-(4-(6-(4-isopropoxyphenyl)pyrrolo[2,1-f][1,2,4]triazin-4-yl)phenyl)benzenesulfonamide]",1000 to 10000,10 to 100
"Cn1cc(-c2cc3c(-c4ccc(NC(=O)NCc5ccccc5)cc4)ncnn3c2)cn1 [Compound 9, 1-benzyl-3-(4-(6-(1-methyl-1H-pyrazol-4-yl)pyrrolo[1,2-f][1,2,4]triazin-4-yl)phenyl)urea]",100 to 1000,10 to 100
CS(=O)(=O)c1ccc(-c2cc3c(-c4ccc(NS(=O)(=O)c5ccc(Cl)cc5)cc4)ncnn3c2)cc1 [Compound 65],100 to 1000,10 to 100
CO[C@H](C(=O)Nc1ccc(-c2ncnn3cc(-c4cnn(C)c4)cc23)cc1)c1ccc(Cl)cc1 [Compound 53],100 to 1000,10 to 100
"CCOC(=O)N1CC=C(c2cc3c(-c4ccc(NS(=O)(=O)c5ccc(Cl)cc5)cc4)ncnn3c2)CC1 [Compound 64, ethyl 4-(4-(4-((4-chlorophenyl)sulfonamido)phenyl)pyrrolo[2,1-f][1,2,4]triazin-6-yl)-3,6-dihydropyridine-1(2H)-carboxylate]",10 to 100,1.01 to 10
O=C(Cc1ccc(Cl)cc1)Nc1ccc(-c2ncnn3cc(-c4ccc(F)cc4)cc23)cc1 [Compound 27],1000 to 10000,10 to 100
Cn1cc(CC(=O)Nc2ccc(-c3ncnn4cc(-c5cnn(C)c5)cc34)cc2)cn1 [Compound 6],1000 to 10000,10 to 100
CO[C@@H](C(=O)Nc1ccc(-c2ncnn3cc(-c4cnn(C)c4)cc23)cc1)c1ccc(Cl)cc1 [Compound 48],< 10,< 1
Cn1cc(-c2cc3c(-c4ccc(NC(=O)Cc5ccccn5)cc4)ncnn3c2)cn1 [Compound 5],1000 to 10000,10 to 100
Cn1cc(-c2cc3c(-c4ccc(NS(=O)(=O)c5ccc(C#N)cc5)cc4)ncnn3c2)cn1 [Compound 26],1000 to 10000,1.01 to 10
Cn1cc(-c2cc3c(-c4ccc(NS(=O)(=O)Cc5ccc(C#N)cc5)cc4)ncnn3c2)cn1 [Compound 40],10 to 100,< 1
Cn1cc(-c2cc3c(-c4ccc(NC(=O)Cc5cccnc5)cc4)ncnn3c2)cn1 [Compound 4],1000 to 10000,1.01 to 10
CC(C)C(C(=O)Nc1ccc(-c2ncnn3cc(-c4cnn(C)c4)cc23)cc1)c1ccc(Cl)cc1 (stereo not drawn) [Compound 58],10 to 100,10 to 100
Cn1cc(-c2cc3c(-c4ccc(NS(=O)(=O)c5ccc(Cl)cc5)cc4)ncnn3c2)cn1 [Compound 36],10 to 100,< 1
CC(C)(C)Oc1ccc(-c2cc3c(-c4ccc(NC(=O)Cc5ccc(Cl)cc5)cc4)ncnn3c2)cc1 [Compound 61],1000 to 10000,10 to 100
"CN(C)C(C(=O)Nc1ccc(-c2ncnn3cc(-c4cnn(C)c4)cc23)cc1)c1ccc(Cl)cc1 (stereo not drawn) [Compound 59, 2-(4-chlorophenyl)-2-(dimethylamino)-N-(4-(6-(1-methyl-1H-pyrazol-4-yl)pyrrolo[1,2-f][1,2,4]triazin-4-yl)phenyl)acetamide]",10 to 100,1.01 to 10
Cn1cc(-c2cc3c(-c4ccc(NS(=O)(=O)CC5COCCO5)cc4)ncnn3c2)cn1 (stereo not drawn) [Compound 25],1000 to 10000,10 to 100
O=S(=O)(Nc1ccc(-c2ncnn3cc(-c4ccc(F)cc4)cc23)cc1)c1ccc(Cl)cc1 [Compound 55],1000 to 10000,> 100
Cn1cc(-c2cc3c(-c4ccc(NS(=O)(=O)c5cccc(Cl)c5)cc4)ncnn3c2)cn1 [Compound 37],100 to 1000,10 to 100

# Now from value to compound:
IC50 [1] [nM],IC50 (D816V Kit) [nM],SMILES
10 to 100,1.01 to 10,Cn1cc(-c2cc3c(-c4ccc(NC(=O)Cc5ccc(Cl)nc5)cc4)ncnn3c2)cn1 [Compound 20]
100 to 1000,10 to 100,C[C@H](C(=O)Nc1ccc(-c2ncnn3cc(-c4cnn(C)c4)cc23)cc1)c1ccc(Cl)cc1 [Compound 30]
< 10,1.01 to 10,C[C@@H](C(=O)Nc1ccc(-c2ncnn3cc(-c4cnn(C)c4)cc23)cc1)c1ccc(Cl)cc1 [Compound 28]
10 to 100,1.01 to 10,Cn1cc(-c2cc3c(-c4ccc(NC(=O)Cc5ccc(Cl)cc5)cc4)ncnn3c2)cn1 [Compound 17]
< 10,1.01 to 10,"Cn1cc(-c2cc3c(-c4ccc(NC(=O)C(C)(N)c5ccc(Cl)cc5)cc4)ncnn3c2)cn1 (stereo not drawn) [Compound 47, 2-amino-2-(4-chlorophenyl)-N-(4-(6-(1-methyl-1H-pyrazol-4-yl)pyrrolo[1,2-f][1,2,4]triazin-4-yl)phenyl)propanamide]"
< 10,1.01 to 10,"Cn1cc(-c2cc3c(-c4ccc(NC(=O)[C@@](C)(N)c5ccc(Cl)cc5)cc4)ncnn3c2)cn1 [Compound 45, 2-amino-2-(4-chlorophenyl)-N-(4-(6-(1-methyl-1H-pyrazol-4-yl)pyrrolo[1,2-f][1,2,4]triazin-4-yl)phenyl)propanamide]"
< 10,< 1,"Cn1cc(-c2cc3c(-c4ccc(NC(=O)[C@H](O)c5ccc(Cl)cc5)cc4)ncnn3c2)cn1 [Compound 32, 2-(4-chlorophenyl)-2-hydroxy-N-(4-(6-(1-methyl-1H-pyrazol-4-yl)pyrrolo[1,2-f][1,2,4]triazin-4-yl)phenyl)acetamide]"
< 10,1.01 to 10,"Cn1cc(-c2cc3c(-c4ccc(NC(=O)C(N)c5ccc(Cl)cc5)cc4)ncnn3c2)cn1 (stereo not drawn) [Compound 31, 2-amino-2-(4-chlorophenyl)-N-(4-(6-(1-methyl-1H-pyrazol-4-yl)pyrrolo[1,2-f][1,2,4]triazin-4-yl)phenyl)acetamide]"
100 to 1000,1.01 to 10,Cn1cc(-c2cc3c(-c4ccc(NC(=O)Cc5cccc(Cl)c5)cc4)ncnn3c2)cn1 [Compound 18]
10 to 100,1.01 to 10,Cn1cc(-c2cc3c(-c4ccc(NC(=O)Cc5ccc(F)cc5)cc4)ncnn3c2)cn1 [Compound 11]
< 10,1.01 to 10,CC(C(=O)Nc1ccc(-c2ncnn3cc(-c4cnn(C)c4)cc23)cc1)c1ccc(Cl)cc1 (stereo not drawn) [Compound 29]
100 to 1000,10 to 100,Cn1cc(-c2cc3c(-c4ccc(NC(=O)C5(c6ccc(Cl)cc6)CC5)cc4)ncnn3c2)cn1 [Compound 39]
100 to 1000,10 to 100,"Cn1cc(-c2cc3c(-c4ccc(NC(=O)[C@](C)(O)c5ccc(Cl)cc5)cc4)ncnn3c2)cn1 [Compound 50, 2-(4-chlorophenyl)-2-hydroxy-N-(4-(6-(1-methyl-1H-pyrazol-4-yl)pyrrolo[1,2-f][1,2,4]triazin-4-yl)phenyl)propanamide]"
< 10,1.01 to 10,CC[C@@H](C(=O)Nc1ccc(-c2ncnn3cc(-c4cnn(C)c4)cc23)cc1)c1ccc(Cl)cc1 [Compound 42]
< 10,1.01 to 10,"Cn1cc(-c2cc3c(-c4ccc(NC(=O)C(O)c5ccc(Cl)cc5)cc4)ncnn3c2)cn1 (stereo not drawn) [Compound 33, 2-(4-chlorophenyl)-2-hydroxy-N-(4-(6-(1-methyl-1H-pyrazol-4-yl)pyrrolo[1,2-f][1,2,4]triazin-4-yl)phenyl)acetamide]"
10 to 100,1.01 to 10,Cn1cc(-c2cc3c(-c4ccc(NC(=O)C(C)(O)c5ccc(Cl)cc5)cc4)ncnn3c2)cn1 (stereo not drawn) [Compound 51]
